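Briefly, cells in 96-well plates were exposed to five compound concentrations for 48 h, and endpoints were estimated by linear interpolation. Definition used: TGI = concentration required for complete inhibition of growth.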
Columns and labels:
Assay in all cases: growth of human tumour cells (NCI), 48 h
786-0 renal = test system: 786-0 renal
A549 NSCLC = test system: A549 NSCLC
ACHN renal = test system: ACHN renal
BT-549 breast = test system: BT-549 breast
CCRF-CEM leukemia = test system: CCRF-CEM leukemia
COLO 205 colon = test system: COLO 205 colon
DU-145 prostate = test system: DU-145 prostate
EKVX NSCLC = test system: EKVX NSCLC
HCC-2998 colon = test system: HCC-2998 colon
HCT-116 colon = test system: HCT-116 colon
HCT-15 colon = test system: HCT-15 colon
HL-60(TB) leukemia = test system: HL-60(TB) leukemia
HOP-62 NSCLC = test system: HOP-62 NSCLC
HOP-92 NSCLC = test system: HOP-92 NSCLC
HS 578T breast = test system: HS 578T breast
HT29 colon = test system: HT29 colon
IGROV1 ovarian = test system: IGROV1 ovarian
K-562 leukemia = test system: K-562 leukemia
KM12 colon = test system: KM12 colon
LOX IMVI melanoma = test system: LOX IMVI melanoma
M14 melanoma = test system: M14 melanoma
MALME-3M melanoma = test system: MALME-3M melanoma
MCF7 breast = test system: MCF7 breast
MDA-MB-231 breast = test system: MDA-MB-231 breast
MDA-MB-435 = test system: MDA-MB-435
MDA-N = test system: MDA-N
MOLT-4 leukemia = test system: MOLT-4 leukemia
NCI-H226 lung = test system: NCI-H226 lung
NCI-H23 lung = test system: NCI-H23 lung
NCI-H460 lung = test system: NCI-H460 lung
NCI-H522 lung = test system: NCI-H522 lung
NCI/ADR-RES ovarian = test system: NCI/ADR-RES ovarian
OVCAR-3 ovarian = test system: OVCAR-3 ovarian
OVCAR-4 ovarian = test system: OVCAR-4 ovarian
OVCAR-5 ovarian = test system: OVCAR-5 ovarian
OVCAR-8 ovarian = test system: OVCAR-8 ovarian
PC-3 prostate = test system: PC-3 prostate
RPMI-8226 leukemia = test system: RPMI-8226 leukemia
RXF 393 renal = test system: RXF 393 renal
SF-268 CNS = test system: SF-268 CNS
SF-295 CNS = test system: SF-295 CNS
SF-539 CNS = test system: SF-539 CNS
SK-MEL-2 melanoma = test system: SK-MEL-2 melanoma
SK-MEL-28 melanoma = test system: SK-MEL-28 melanoma
SK-MEL-5 melanoma = test system: SK-MEL-5 melanoma
SK-OV-3 ovarian = test system: SK-OV-3 ovarian
SN12C renal = test system: SN12C renal
SNB-19 CNS = test system: SNB-19 CNS
SNB-75 CNS = test system: SNB-75 CNS
SR leukemia = test system: SR leukemia
SW-620 colon = test system: SW-620 colon
T-47D breast = test system: T-47D breast
TK-10 renal = test system: TK-10 renal
U251 CNS = test system: U251 CNS
UACC-257 melanoma = test system: UACC-257 melanoma
UACC-62 melanoma = test system: UACC-62 melanoma
UO-31 renal = test system: UO-31 renal
A498 renal = test system: A498 renal
CAKI-1 renal = test system: CAKI-1 renal

Measured: TGI

O=C(NNC1=NCCCN1)c1ccco1
> 100 µM: 786-0 renal | A549 NSCLC | ACHN renal | BT-549 breast | CCRF-CEM leukemia | COLO 205 colon | DU-145 prostate | EKVX NSCLC | HCC-2998 colon | HCT-116 colon | HCT-15 colon | HL-60(TB) leukemia | HOP-62 NSCLC | HOP-92 NSCLC | HS 578T breast | HT29 colon | IGROV1 ovarian | K-562 leukemia | KM12 colon | LOX IMVI melanoma | M14 melanoma | MALME-3M melanoma | MCF7 breast | MDA-MB-231 breast | MDA-MB-435 | MDA-N | MOLT-4 leukemia | NCI-H226 lung | NCI-H23 lung | NCI-H460 lung | NCI-H522 lung | NCI/ADR-RES ovarian | OVCAR-3 ovarian | OVCAR-4 ovarian | OVCAR-5 ovarian | OVCAR-8 ovarian | PC-3 prostate | RPMI-8226 leukemia | RXF 393 renal | SF-268 CNS | SF-295 CNS | SF-539 CNS | SK-MEL-2 melanoma | SK-MEL-28 melanoma | SK-MEL-5 melanoma | SK-OV-3 ovarian | SN12C renal | SNB-19 CNS | SNB-75 CNS | SR leukemia | SW-620 colon | T-47D breast | TK-10 renal | U251 CNS | UACC-257 melanoma | UACC-62 melanoma | UO-31 renal

O=C(O)C1(Cc2ccccc2)Cc2cc3c(cc2C1)CCC3
94 µM: HOP-92 NSCLC
> 100 µM: 786-0 renal | A549 NSCLC | ACHN renal | BT-549 breast | CCRF-CEM leukemia | COLO 205 colon | DU-145 prostate | EKVX NSCLC | HCC-2998 colon | HCT-116 colon | HCT-15 colon | HL-60(TB) leukemia | HOP-62 NSCLC | HS 578T breast | HT29 colon | IGROV1 ovarian | K-562 leukemia | KM12 colon | LOX IMVI melanoma | M14 melanoma | MALME-3M melanoma | MCF7 breast | MDA-MB-231 breast | MDA-MB-435 | MDA-N | MOLT-4 leukemia | NCI-H226 lung | NCI-H23 lung | NCI-H460 lung | NCI-H522 lung | NCI/ADR-RES ovarian | OVCAR-3 ovarian | OVCAR-4 ovarian | OVCAR-5 ovarian | OVCAR-8 ovarian | PC-3 prostate | RPMI-8226 leukemia | RXF 393 renal | SF-268 CNS | SF-295 CNS | SF-539 CNS | SK-MEL-2 melanoma | SK-MEL-28 melanoma | SK-MEL-5 melanoma | SK-OV-3 ovarian | SN12C renal | SNB-19 CNS | SNB-75 CNS | SR leukemia | SW-620 colon | T-47D breast | TK-10 renal | U251 CNS | UACC-257 melanoma | UACC-62 melanoma | UO-31 renal

CN(CC(=O)O)Cc1c(O)c(Cl)cc(Cl)c1Cl
90.9 µM: SR leukemia
75.4 µM: NCI-H460 lung
92.1 µM: NCI-H226 lung
38.8 µM: OVCAR-3 ovarian
50.4 µM: CCRF-CEM leukemia
77.3 µM: UACC-62 melanoma
> 100 µM: 786-0 renal | A498 renal | A549 NSCLC | ACHN renal | BT-549 breast | CAKI-1 renal | COLO 205 colon | DU-145 prostate | EKVX NSCLC | HCT-116 colon | HCT-15 colon | HOP-62 NSCLC | HOP-92 NSCLC | HS 578T breast | HT29 colon | IGROV1 ovarian | KM12 colon | LOX IMVI melanoma | M14 melanoma | MALME-3M melanoma | MCF7 breast | MDA-MB-231 breast | MDA-MB-435 | MDA-N | NCI-H23 lung | NCI-H522 lung | NCI/ADR-RES ovarian | OVCAR-4 ovarian | OVCAR-5 ovarian | OVCAR-8 ovarian | PC-3 prostate | RPMI-8226 leukemia | RXF 393 renal | SF-268 CNS | SF-295 CNS | SF-539 CNS | SK-MEL-2 melanoma | SK-MEL-5 melanoma | SK-OV-3 ovarian | SN12C renal | SNB-19 CNS | SNB-75 CNS | SW-620 colon | T-47D breast | TK-10 renal | U251 CNS | UO-31 renal
44.6 µM: HL-60(TB) leukemia
97.5 µM: UACC-257 melanoma
97.4 µM: SK-MEL-28 melanoma

Cc1cc(C)nc(NS(=O)(=O)c2ccc(Nc3c4ccccc4nc4c(C(=O)NC(CO)(CO)CO)cccc34)cc2)n1
91.8 µM: RPMI-8226 leukemia
44.2 µM: BT-549 breast
68.9 µM: TK-10 renal
62.5 µM: SK-MEL-28 melanoma
36.1 µM: HCC-2998 colon
88.4 µM: OVCAR-5 ovarian
> 100 µM: 786-0 renal | A498 renal | ACHN renal | CAKI-1 renal | DU-145 prostate | EKVX NSCLC | HCT-15 colon | HOP-62 NSCLC | HOP-92 NSCLC | HS 578T breast | IGROV1 ovarian | K-562 leukemia | M14 melanoma | MCF7 breast | MDA-MB-231 breast | MOLT-4 leukemia | NCI-H23 lung | NCI/ADR-RES ovarian | OVCAR-3 ovarian | OVCAR-4 ovarian | OVCAR-8 ovarian | PC-3 prostate | SF-268 CNS | SF-295 CNS | SK-OV-3 ovarian | SN12C renal | SNB-19 CNS | SW-620 colon | T-47D breast | UACC-257 melanoma | UACC-62 melanoma | UO-31 renal
42.2 µM: LOX IMVI melanoma
35.3 µM: NCI-H460 lung
70.8 µM: HT29 colon
83.5 µM: U251 CNS
42.6 µM: COLO 205 colon
58.9 µM: CCRF-CEM leukemia
44.5 µM: SK-MEL-5 melanoma
68.8 µM: MDA-N
31.7 µM: NCI-H522 lung
51.6 µM: MDA-MB-435
36.4 µM: KM12 colon
97.9 µM: HL-60(TB) leukemia
55.2 µM: SNB-75 CNS
67.2 µM: SR leukemia
73.2 µM: A549 NSCLC
44.4 µM: SK-MEL-2 melanoma
